Assay results taken from patent US4598066A, “Antimycoplasmal agent for animals and method of use for prevention and treatment of mycoplasmosis” (Fujisawa Pharmaceutical Co., Ltd., priority 1982, dated 1986).

Tested on: Mycoplasma gallisepticum 1RF
Assay: Test 5: Mycoplasma gallisepticum 1RF intranasal infection in chickens, Compound 1 and tylosin alone and combined
Format: in vivo, chicken
Settings: single oral dose 100 mg/kg 1 hr after intranasal infection; 20 days after infection (group C)
Method: Mycoplasma: Mycoplasma gallisepticum 1RF supplied from the National Institute of Animal Health, Ibaraki prefecture, Japan was used.
Chickens used: Broiler males (Chunky), purchased as day-old chickens from a commercial flock free of Mycoplasma gallisepticum agglutinins, were maintained under isolation in an electrically heated battery brooder. When birds reached 7 to 8 days of age, they were used for test.
Infection of mycoplasma: Mycoplasma gallisepticum 1RF was cultured in PPLO liquid medium (Difco) for 3 to 4 days at 37° C. until the colour of broth changed from red to yellowish organge. An aliquot of the culture (10^7 -10^8 cfu/ml) was used for infection.
Intranasal infections were produced by dropping 0.05 ml of the culture into the nasal cavity of chickens.
Recovery of mycoplasma: Twenty to 21 days after infection, the chickens were killed and recovery of mycoplasma was examined from the trachea, air-sac, and tibia-metatarsus joints.
Recovered organisms were identified as Mycoplasma gallisepticum after examining glucose fermentation, colonies, and haemadsorption test.
Inhibition(%) of infection: Average recovery percentage of Mycoplasma gallisepticum from trachea, air-sac, and tibia-metatarsus joints was measured infected medicated, and infected non-medicated chickens.
Inhibition(%) was calculated as follows: [formula] […]

Structure (SMILES): CC[C@H]1OC(=O)C[C@@H](O)[C@H](C)[C@@H](O[C@@H]2O[C@H](C)[C@@H](O[C@H]3C[C@@](C)(O)[C@@H](O)[C@H](C)O3)[C@H](N(C)C)[C@H]2O)[C@@H](CC=O)C[C@@H](C)C(=O)/C=C/C(C)=C/[C@@H]1CO[C@@H]1O[C@H](C)[C@@H](O)[C@@H](OC)[C@H]1OC [Tylosin, tylosin]
- Inhibition (%) of infection: 17%
